Laboratory results from the supplement of paper PMC10307832.

Legend:
Assay in all cases: relative viability (nuclei count vs DMSO), 5 days (fraction); higher = more cells survive
[1] = compound: O=C1NC(=O)[C@@H](c2cn3c4c(cccc24)CCC3)[C@@H]1c1c[nH]c2ccccc12 [Tivantinib] + Nc1nc2[nH]cc(CCc3ccc(C(=O)N[C@@H](CCC(=O)O)C(=O)O)cc3)c2c(=O)[nH]1 [Pemetrexed] (partner 0.2 µM)
How it was run: (§1)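 Lung cancer cell lines in 1536-well plates got either a single drug or a fixed anchor-drug dose together with five library-drug doses (not always all listed) in √10 steps, by pin tool, on the day after seeding. Nuclei were counted after 5 days, and relative viability is the treated-to-vehicle ratio of nuclei counts. Values are medians of duplicate plates.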

[2] = compound: CC1(COc2ccc3c(c2)ncn3-c2ccc3cccc(N4CCC(N)CC4)c3n2)COC1 [Crenolanib] + Cc1nc(NC(=O)N2CCC[C@H]2C(N)=O)sc1-c1ccnc(C(C)(C)C(F)(F)F)c1 [Alpelisib] (partner 2 µM)
How it was run: as §1

[3] = compound: O=C1NC(=O)[C@@H](c2cn3c4c(cccc24)CCC3)[C@@H]1c1c[nH]c2ccccc12 [Tivantinib] + CS(=O)(=O)N1CCN(Cc2cc3nc(-c4cccc5[nH]ncc45)nc(N4CCOCC4)c3s2)CC1 [Pictilisib] (partner 1 µM)
How it was run: as §1

[4] = compound: CC1(COc2ccc3c(c2)ncn3-c2ccc3cccc(N4CCC(N)CC4)c3n2)COC1 [Crenolanib] + CC(=O)c1c(C)c2cnc(Nc3ccc(N4CCNCC4)cn3)nc2n(C2CCCC2)c1=O [Palbociclib] (partner 0.5 µM)
How it was run: as §1

| Cell Line | relative viability ([1]; first compound 0.01 µM) | relative viability ([1]; first compound 0.03162 µM) | relative viability ([1]; first compound 0.1 µM) | relative viability ([2]; first compound 0.01 µM) | relative viability ([2]; first compound 0.03162 µM) | relative viability ([2]; first compound 0.1 µM) | relative viability ([2]; first compound 0.3162 µM) | relative viability ([2]; first compound 1 µM) | relative viability ([3]; first compound 0.01 µM) | relative viability ([3]; first compound 0.03162 µM) | relative viability ([3]; first compound 0.1 µM) | relative viability ([3]; first compound 0.3162 µM) | relative viability ([4]; first compound 0.01 µM) | relative viability ([4]; first compound 0.03162 µM) | relative viability ([4]; first compound 0.1 µM) | relative viability ([4]; first compound 0.3162 µM) | relative viability ([4]; first compound 1 µM) | relative viability ([1]; first compound 0.3162 µM) |
| --- | --- | --- | --- | --- | --- | --- | --- | --- | --- | --- | --- | --- | --- | --- | --- | --- | --- | --- |
| HCC-827 | 0.251 | 0.257 | 0.272 | 1.04 | 1.01 | 0.916 | 1.03 | 0.992 | 1.15 | 1.01 | 0.983 | 0.415 | 0.453 | 0.484 | 0.503 | 0.482 | 0.507 |  |
| NCI-H1355 | 1.03 | 1.01 | 1 | 0.845 | 0.803 | 0.911 | 1.02 | 0.748 | 0.401 | 0.356 | 0.426 | 0.38 | 0.405 | 0.457 | 0.4 | 0.472 | 0.351 | 1.03 |
| NCI-H838 | 0.253 | 0.258 | 0.239 | 1.02 | 0.991 | 0.968 | 1.22 | 0.846 | 0.442 | 0.479 | 0.389 | 0.373 | 0.244 | 0.232 | 0.21 | 0.232 | 0.205 | 0.227 |
| NCI-H2126 | 0.677 | 0.633 | 0.706 | 0.8 | 0.752 | 0.761 | 0.787 | 0.715 | 0.51 | 0.446 | 0.496 | 0.478 | 0.343 | 0.352 | 0.335 | 0.352 | 0.372 | 0.547 |
| BEN | 0.724 | 0.71 | 0.636 | 0.917 | 0.895 | 0.904 | 0.972 | 0.97 | 0.703 | 0.41 | 0.501 | 0.432 | 0.464 | 0.482 | 0.48 | 0.524 | 0.497 | 0.684 |
| LCLC-97TM1 | 0.148 | 0.165 | 0.157 | 0.257 | 0.287 | 0.326 | 0.287 | 0.308 | 0.199 | 0.14 | 0.234 | 0.181 | 0.244 | 0.183 | 0.268 | 0.277 | 0.232 | 0.191 |
| EKVX | 0.344 | 0.413 | 0.425 | 0.893 | 0.96 | 0.862 | 0.965 | 0.99 | 0.449 | 0.381 | 0.417 | 0.163 | 0.447 | 0.338 | 0.39 | 0.393 | 0.322 | 0.203 |
| NCI-H661 | 0.922 | 0.961 | 0.975 | 0.894 | 0.609 | 0.479 | 0.597 | 0.542 | 0.472 | 0.394 | 0.387 | 0.269 | 0.433 | 0.416 | 0.424 | 0.408 | 0.43 | 0.844 |
| NCI-H1651 | 0.553 | 0.548 | 0.572 | 0.89 | 0.903 | 0.893 | 0.982 | 0.867 | 0.622 | 0.448 | 0.545 | 0.614 | 0.531 | 0.518 | 0.516 | 0.522 | 0.495 | 0.58 |
| NCI-H2087 | 0.645 | 0.78 | 0.58 | 0.86 | 1.11 | 0.942 | 1.02 | 1.17 | 0.958 | 0.757 | 0.909 | 0.896 | 0.248 | 0.249 | 0.233 | 0.211 | 0.318 | 0.603 |
| NCI-H1793 | 0.83 | 0.885 | 0.832 | 0.684 | 0.964 | 0.712 | 0.76 | 0.717 | 0.353 | 0.42 | 0.437 |  | 0.295 | 0.321 | 0.302 | 0.36 | 0.43 | 0.669 |
| LCLC-103H | 0.472 | 0.368 | 0.406 | 0.852 | 0.859 | 0.888 | 0.886 | 0.942 | 0.684 | 0.517 | 0.704 | 0.63 | 0.541 | 0.441 | 0.465 | 0.447 | 0.492 | 0.432 |
| COR-L 105 | 1.02 | 1.05 | 1.08 | 1.02 | 1.25 | 0.811 | 1.03 | 1.02 | 0.401 | 0.335 | 0.389 | 0.406 | 0.435 | 0.467 | 0.436 | 0.379 | 0.417 | 0.696 |
| NCI-H1437 | 0.336 | 0.319 | 0.315 | 0.999 | 1.07 | 0.944 | 1.18 | 0.949 | 0.379 | 0.308 | 0.416 | 0.407 | 0.33 | 0.322 | 0.301 | 0.293 | 0.332 | 0.298 |
| HARA | 0.279 | 0.252 | 0.263 | 0.877 | 0.818 | 0.712 | 0.793 | 0.751 | 0.389 | 0.237 | 0.474 | 0.253 | 0.298 | 0.219 | 0.272 | 0.242 | 0.294 | 0.24 |
| NCI-H2009 | 1.01 | 1.12 | 1.04 | 1.12 | 1.19 | 1.06 | 1.18 | 1.07 | 0.875 | 0.464 | 0.767 | 0.763 | 0.219 | 0.22 | 0.251 | 0.186 | 0.19 | 1.08 |
| NCI-H1755 | 0.475 | 0.381 | 0.358 | 0.958 | 0.953 | 0.915 | 1.05 | 0.898 | 0.462 | 0.417 | 0.39 | 0.355 | 0.466 | 0.443 | 0.46 | 0.454 | 0.473 | 0.439 |
| LU99A | 0.173 | 0.201 | 0.16 | 0.565 | 0.503 | 0.49 | 0.526 | 0.506 | 0.288 | 0.308 | 0.292 | 0.287 | 0.411 | 0.453 | 0.4 | 0.432 | 0.441 | 0.178 |
| NCI-H23 | 0.688 | 0.653 | 0.646 | 0.845 | 0.797 | 0.604 | 0.778 | 0.741 | 0.43 | 0.324 | 0.533 | 0.382 | 0.588 | 0.516 | 0.454 | 0.539 | 0.449 | 0.715 |
| PC-3 [JPC-3] | 1.24 | 1.27 | 1.21 | 1.07 | 0.982 | 0.981 | 1.02 | 1.04 | 0.687 | 0.705 | 0.765 | 0.637 | 0.563 |  | 0.543 | 0.534 | 0.568 | 0.72 |
| NCI-H520 | 0.695 | 0.716 | 0.631 | 0.868 | 0.878 | 0.863 | 0.99 | 0.848 | 0.292 | 0.237 | 0.268 | 0.262 | 0.252 | 0.214 | 0.289 | 0.267 | 0.309 | 0.652 |
| NCI-H1666 | 0.841 | 0.867 | 0.853 | 0.932 | 0.969 | 1.04 | 1.08 | 1.02 | 0.552 | 0.352 | 0.43 | 0.401 | 0.657 | 0.678 | 0.594 | 0.63 | 0.694 | 0.673 |
| NCI-H1792 | 0.965 |  | 0.81 | 0.707 | 0.741 | 0.697 | 0.705 | 0.666 | 0.343 | 0.235 | 0.288 | 0.186 | 0.68 | 0.683 | 0.648 | 0.687 | 0.677 | 0.725 |
| HCC-15 | 0.215 | 0.221 | 0.227 | 0.873 | 0.829 | 0.888 | 0.814 | 0.836 | 0.705 | 0.671 | 0.674 | 0.799 | 0.721 | 0.702 | 0.755 | 0.526 | 0.66 | 0.224 |
| NCI-H647 | 0.17 | 0.192 | 0.18 | 1.16 | 1.28 | 1.04 | 1.21 | 1.11 | 0.45 | 0.341 | 0.409 | 0.371 | 0.401 | 0.341 | 0.434 | 0.363 | 0.51 | 0.184 |
| NCI-H2347 | 0.405 | 0.454 | 0.394 | 1.1 | 1.04 | 0.642 | 1.09 | 1.14 | 0.986 | 0.724 | 0.514 | 0.525 | 0.458 | 0.453 | 0.395 | 0.435 | 0.481 | 0.419 |
| LOU-NH91 | 0.394 | 0.428 | 0.4 | 0.784 | 0.755 | 0.635 | 0.641 | 0.694 | 0.517 | 0.485 | 0.521 | 0.519 | 0.524 | 0.481 | 0.518 | 0.539 | 0.548 | 0.468 |
| H3255 | 0.554 | 0.586 | 0.598 | 0.811 | 0.676 | 0.71 | 0.714 | 0.767 | 0.466 | 0.494 | 0.485 |  | 0.303 | 0.309 | 0.325 | 0.301 | 0.315 |  |
| NCI-H1975 | 0.294 | 0.287 | 0.249 | 0.602 | 0.663 | 0.605 | 0.642 | 0.61 | 0.283 | 0.304 | 0.281 | 0.259 | 0.623 | 0.575 | 0.498 | 0.568 | 0.555 | 0.27 |
| NCI-H3122 | 0.179 | 0.199 | 0.196 | 0.768 | 0.81 | 0.827 | 0.78 | 0.979 | 0.585 | 0.599 | 0.545 | 0.441 | 0.177 | 0.193 | 0.196 | 0.196 | 0.206 | 0.162 |
